Assay results reported in US9062124B2, “GIP-based mixed agonists for treatment of metabolic disorders and obesity” (priority 2008, dated 2015).
Bridges are numbered along the chain shown (N, C = ends). Where no end group is shown, it is not given here. [ ]: non-standard residue; d: D form. PEG 40 kDa = PEG (40 kDa) covalently attached to Cys; C14 acyl = 14 carbon fatty acyl group; Aib = CC(C)(N)C(=O)O

Tests used:
[1] = Glucose tolerance test (1-hour and 24-hour GTT) in DIO mice; assay type: in vivo; conditions: Example 26; for potency in GTT compared with GLP-1 agonist control peptide: 1 or 3 nmol/kg/week versus control at 10 nmol/kg/week; for blood glucose levels in 1-hour and 24-hour GTT: DIO mice, intraperitoneal, 1, 3 or 10 nmol/kg/week, versus vehicle control
Description: A 1-hour glucose tolerance test (GTT) was performed on the mice by intraperitoneally injecting a 25% (w/v) glucose saline solution into the mice one hour after injection with one of the peptides or vehicle control. The glucose saline solution was administered to the mice at a dose of 1.5 g per kg of mouse body weight. Blood glucose levels were measured at the time of injection of peptide or vehicle control (−60 min), at the time of glucose saline solution injection (0 min), or at 15, 30, 60, or 120 min post injection with the glucose saline solution.
A 24-hour GTT also was performed on the mice in the same manner as the 1-hour GTT, except that the glucose saline solution was administered to the mice 24 hours after injection with the peptide or vehicle control. The results of the 24-hour GTT are showri in FIG. 8.

[2] = test system: glucagon receptor, GLP-1 receptor or GIP receptor; test: Agonist profile across receptors assigned from the cAMP reporter assay data; assay type: cell-based; conditions: assigned from the in vitro EC50 data of Tables 1-4
[3] = Body weight of mice after peptide injection; conditions: for reduction of body weight: subcutaneous QW, 70 or 210 nmol/kg/week; for % change in body weight: Example 26, intraperitoneal, 3 or 10 nmol/kg/week, up to Day 7; for total change in body weight: subcutaneous, Day 7
[4] = Blood glucose levels of mice after peptide injection; conditions: for decrease in blood glucose levels: Example 29, QD for 7 days, 25 nmol/kg
[5] = target: T1, glucagon receptor (Homo sapiens, UniProt P47871); test: cAMP synthesis functional assay (firefly luciferase reporter in HEK293 cells), glucagon receptor; assay type: cell-based; conditions: relative to the standard (Std.) EC50 of the same run
T1 construct: expressed in transfected cells; host or cells: HEK293
T1 sequence (P47871 26-477): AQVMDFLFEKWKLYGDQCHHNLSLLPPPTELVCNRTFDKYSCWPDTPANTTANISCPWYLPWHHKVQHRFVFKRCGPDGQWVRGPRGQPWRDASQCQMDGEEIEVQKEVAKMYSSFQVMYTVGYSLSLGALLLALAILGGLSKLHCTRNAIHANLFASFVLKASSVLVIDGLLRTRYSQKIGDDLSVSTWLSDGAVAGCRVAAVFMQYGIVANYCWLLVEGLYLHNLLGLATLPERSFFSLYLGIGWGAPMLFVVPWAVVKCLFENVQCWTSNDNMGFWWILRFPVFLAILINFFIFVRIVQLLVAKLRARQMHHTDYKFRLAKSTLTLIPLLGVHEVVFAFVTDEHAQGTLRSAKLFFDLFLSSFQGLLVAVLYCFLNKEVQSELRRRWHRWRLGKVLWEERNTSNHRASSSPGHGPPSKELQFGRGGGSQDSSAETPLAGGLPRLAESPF

[6] = target: T2, GLP-1 receptor (Homo sapiens, UniProt P43220); test: cAMP synthesis functional assay (firefly luciferase reporter in HEK293 cells), GLP-1 receptor; assay type: cell-based
T2 construct: expressed in transfected cells; host or cells: HEK293
T2 sequence (P43220 24-463, species assumed): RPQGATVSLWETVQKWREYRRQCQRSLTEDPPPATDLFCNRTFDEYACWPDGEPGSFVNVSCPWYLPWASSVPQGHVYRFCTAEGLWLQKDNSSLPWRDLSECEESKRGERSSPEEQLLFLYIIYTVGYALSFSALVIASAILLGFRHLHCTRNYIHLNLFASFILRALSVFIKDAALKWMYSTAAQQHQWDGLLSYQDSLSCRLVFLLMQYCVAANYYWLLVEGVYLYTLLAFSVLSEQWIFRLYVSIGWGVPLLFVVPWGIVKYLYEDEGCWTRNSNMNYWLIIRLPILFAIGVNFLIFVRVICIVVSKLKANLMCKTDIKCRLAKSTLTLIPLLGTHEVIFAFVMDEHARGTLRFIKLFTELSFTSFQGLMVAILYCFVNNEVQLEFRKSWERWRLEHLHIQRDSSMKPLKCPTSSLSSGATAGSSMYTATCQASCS

[7] = target: T3, GIP receptor (Homo sapiens, UniProt P48546); test: cAMP synthesis functional assay (firefly luciferase reporter in HEK293 cells), GIP receptor; assay type: cell-based; conditions: relative to the standard (Std.) EC50 of the same run
T3 construct: expressed in transfected cells; host or cells: HEK293
T3 sequence (P48546 22-466): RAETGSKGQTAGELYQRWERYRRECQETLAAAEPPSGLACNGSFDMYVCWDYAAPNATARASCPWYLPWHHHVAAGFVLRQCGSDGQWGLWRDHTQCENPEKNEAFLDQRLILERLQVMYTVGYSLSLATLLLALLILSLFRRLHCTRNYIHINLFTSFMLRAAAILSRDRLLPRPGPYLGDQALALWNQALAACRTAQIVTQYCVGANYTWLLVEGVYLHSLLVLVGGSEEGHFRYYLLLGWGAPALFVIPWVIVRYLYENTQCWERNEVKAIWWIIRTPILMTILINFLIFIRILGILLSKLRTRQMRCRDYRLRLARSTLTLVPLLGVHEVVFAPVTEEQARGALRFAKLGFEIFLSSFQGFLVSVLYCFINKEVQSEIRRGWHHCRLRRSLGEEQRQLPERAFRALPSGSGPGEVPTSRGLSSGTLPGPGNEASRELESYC

[8] = Food intake of mice after peptide injection; assay type: in vivo; conditions: for total food intake: versus vehicle control
[9] = Example 28, DIO mice, subcutaneous, 10 nmol/kg, Day 0 versus Day 7
[10] = Example 34, DIO mice, 10 or 35 nmol/kg
[11] = Example 34, DIO mice, higher dose (35 nmol/kg), Day 0 versus Day 7
[12] = Example 20, DIO mice, subcutaneous QW, 70 or 210 nmol/kg/week

mt-178: pegylated, cyclic, lactam-containing GIP-active glucagon analog; GLP-1/GIP co-agonist peptide (Y[Aib]EGTFTSDYSIYLDEQAAKEFVNWLLAGGPSSGAPPPSC(PEG 40 kDa)-NH2; lactam 16-20)
potency in GTT compared with GLP-1 agonist control peptide [1]: greater than that of the GLP-1 agonist control peptide | blood glucose levels in 1-hour and 24-hour GTT [1]: exhibited decreased levels of blood glucose | receptor activity profile (glucagon / GLP-1 / GIP agonism) [2]: exemplary GLP-1/GIP co-agonist peptides | reduction of body weight ([3]; Example 22, DIO mice): a little more effective at reducing body weight in the mice as Chimera 2 AIB2, but not as effective as Chimera 2 AIB2 lactam | % change in body weight ([3]; DIO mice): lost weight to the same or greater extent of mice injected with the GLP-agonist control peptide | total change in body weight ([3]; Example 28, DIO mice, 10 nmol/kg): greatest loss of body weight 7 days after injection | blood glucose levels [4, 9]: decreased

CCCCCCCCCCCCCC(=O)NCCCC[C@H](NC(=O)[C@H](CO)NC(=O)[C@@H]1CCCN1C(=O)[C@@H]1CCCN1C(=O)[C@@H]1CCCN1C(=O)[C@H](C)NC(=O)CNC(=O)[C@H](CO)NC(=O)[C@H](CO)NC(=O)[C@@H]1CCCN1C(=O)CNC(=O)CNC(=O)[C@H](C)NC(=O)[C@H](CC(C)C)NC(=O)[C@H](CC(C)C)NC(=O)[C@H](Cc1c[nH]c2ccccc12)NC(=O)[C@H](CC(N)=O)NC(=O)[C@@H](NC(=O)[C@H](Cc1ccccc1)NC(=O)[C@H](CCC(=O)O)NC(=O)C(C)(C)NC(=O)[C@H](C)NC(=O)[C@H](C)NC(=O)[C@H](CCC(N)=O)NC(=O)[C@H](CCCCN)NC(=O)[C@H](CC(=O)O)NC(=O)[C@H](CC(C)C)NC(=O)[C@H](Cc1ccc(O)cc1)NC(=O)[C@@H](NC(=O)[C@H](CO)NC(=O)[C@H](Cc1ccc(O)cc1)NC(=O)[C@H](CC(=O)O)NC(=O)[C@H](CO)NC(=O)[C@@H](NC(=O)[C@H](Cc1ccccc1)NC(=O)[C@@H](NC(=O)CNC(=O)[C@H](CCC(=O)O)NC(=O)C(C)(C)NC(=O)[C@@H](N)Cc1ccc(O)cc1)[C@@H](C)O)[C@@H](C)O)[C@@H](C)CC)C(C)C)C(N)=O [mt-260]
Glucagon Receptor relative activity [5]: 6.64% | EC50 ([6]; GLP-1 Receptor EC50, cAMP luciferase reporter assay as in Example 16): 6.8 pM | GLP-1 Receptor relative activity ([6]; relative to the standard (Std.) EC50 of the same run): 257.35% | GIP Receptor relative activity [7]: 583.33% | receptor activity profile (glucagon / GLP-1 / GIP agonism) [2]: exhibited activity at the GIP, GLP-1, and glucagon receptors | decrease in blood glucose levels ([4]; mice): ~50%

mt-311: non-acylated version of mt-298; PEG on Cys at position 24, C-terminal Lys (Y[Aib]EGTFTSDYSIYLDKQAA[Aib]EFVC(PEG 40 kDa)WLLAGGPSSGAPPPSK-NH2)
total food intake [8, 10]: decreased, as compared to the mice injected with a vehicle control | blood glucose levels [4, 9]: decreased | blood glucose levels [4, 11]: decreased upon administration of the higher dose

Pro3 C24 GIP NH2 (1-42) 40K PEG: amino acids 1-42 of GIP with Pro at position 3, Cys at position 24 attached to 40K PEG, C-terminal amide (YAPGTFISDYSIAMDKIHQQDFVC(PEG 40 kDa)WLLAQKGKKNDWKHNITQ-NH2) [reference compound]
reduction of cumulative food intake [8, 12]: neither the GIP antagonist nor the GIP agonist peptide were effective | reduction of body weight ([3]; Example 20, DIO mice, compared with pegylated glucagon/GLP-1 co-agonist): neither the GIP antagonist nor the GIP agonist peptide were effective | reduction of blood glucose levels [4, 12]: neither the GIP antagonist nor the GIP agonist peptide were effective

mt-331: same amino acid sequence as mt-311, differing in the pegylation linker; no acyl group on Lys at position 40 (Y[Aib]EGTFTSDYSIYLDKQAA[Aib]EFVC(PEG 40 kDa)WLLAGGPSSGAPPPSK-NH2; also: PEG linker structure not shown)
total food intake [8, 10]: decreased, as compared to the mice injected with a vehicle control | total food intake ([8]; Example 35, 3 or 10 nmol/kg): decreased in comparison to mice administered the vehicle control | blood glucose levels [4, 11]: decreased upon administration of the higher dose

mt-309: acylated version of mt-274: C-terminal Lys with C14 fatty acyl group, 40 kDa PEG on Cys at position 24 (Y[Aib]EGTFTSDYSIYLDKQAA[Aib]EFVC(PEG 40 kDa)WLLAGGPSSGAPPPSK(C14 acyl)-NH2)
total change in body weight (%), effect of dosing frequency ([3]; Example 37, DIO mice, subcutaneous QD 5 nmol/kg, every 2nd day 10 nmol/kg or QW 30 nmol/kg, Day 6): approximately the same as the total change in body weight for mice injected QD | decrease in blood glucose levels, effect of dosing frequency ([4]; Example 37, DIO mice, QD 5, every 2nd day 10 or QW 30 nmol/kg, Day 6): a QW injection of mt-309 achieved the same decrease in blood glucose levels as a QD injection

mt-274: pegylated, linear peptide lacking a lactam, Glu at position 3, PEG on C-terminal Cys at position 40 (Y[Aib]EGTFTSDYSIYLDKQAA[Aib]EFVNWLLAGGPSSGAPPPSC(PEG 40 kDa)-NH2)
potency in GTT compared with GLP-1 agonist control peptide [1]: appeared to have the highest potency | blood glucose levels in 1-hour and 24-hour GTT [1]: exhibited decreased levels of blood glucose | % change in body weight ([3]; DIO mice): lost weight to the same or greater extent of mice injected with the GLP-agonist control peptide | total change in body weight ([3]; Example 27, mice, 10 or 35 nmol/kg/week): most dramatic changes in body weight | total change in blood glucose ([4]; Example 27, mice, subcutaneous, 10 or 35 nmol/kg/week, Day 7): most dramatic changes in blood glucose | blood glucose levels [4, 9]: decreased

mt-353: same sequence as mt-331 with a C14 fatty acyl group on the Lys at position 40 (Y[Aib]EGTFTSDYSIYLDKQAA[Aib]EFVC(PEG 40 kDa)WLLAGGPSSGAPPPSK(C14 acyl)-NH2)
total food intake ([8]; Example 35, 3 or 10 nmol/kg): decreased in comparison to mice administered the vehicle control | blood glucose levels ([4]; Example 35, C57Bl/6 mice on diabetogenic diet): additionally caused blood glucose levels to decrease

CCCCCCCCCCCCCCCCCC(=O)NCCCC[C@H](NC(=O)[C@H](CO)NC(=O)[C@@H]1CCCN1C(=O)[C@@H]1CCCN1C(=O)[C@@H]1CCCN1C(=O)[C@H](C)NC(=O)CNC(=O)[C@H](CO)NC(=O)[C@H](CO)NC(=O)[C@@H]1CCCN1C(=O)CNC(=O)CNC(=O)[C@H](C)NC(=O)[C@H](CC(C)C)NC(=O)[C@H](CC(C)C)NC(=O)[C@H](Cc1c[nH]c2ccccc12)NC(=O)[C@H](CC(N)=O)NC(=O)[C@@H](NC(=O)[C@H](Cc1ccccc1)NC(=O)[C@H](CCC(=O)O)NC(=O)C(C)(C)NC(=O)[C@H](C)NC(=O)[C@H](C)NC(=O)[C@H](CCC(N)=O)NC(=O)[C@H](CCCCN)NC(=O)[C@H](CC(=O)O)NC(=O)[C@H](CC(C)C)NC(=O)[C@H](Cc1ccc(O)cc1)NC(=O)[C@@H](NC(=O)[C@H](CO)NC(=O)[C@H](Cc1ccc(O)cc1)NC(=O)[C@H](CC(=O)O)NC(=O)[C@H](CO)NC(=O)[C@@H](NC(=O)[C@H](Cc1ccccc1)NC(=O)[C@@H](NC(=O)CNC(=O)[C@H](CCC(=O)O)NC(=O)C(C)(C)NC(=O)[C@@H](N)Cc1ccc(O)cc1)[C@@H](C)O)[C@@H](C)O)[C@@H](C)CC)C(C)C)C(N)=O [mt-262]
receptor activity profile (glucagon / GLP-1 / GIP agonism) [2]: exhibited activity at the GIP, GLP-1, and glucagon receptors | decrease in blood glucose levels ([4]; mice): ~50%
